# Reference: ChEMBL document CHEMBL3272313, “3-Hydroxy-17-aralkylmorphinans as potential opiate receptor-site-directed alkylating agents” (J Med Chem, 1977)
# Active and inactive are the calls of the source. The calls are words filed in the database; no cut-off is given here.
# Key:
# Mus musculus [1] = experiment: Analgesic activity in sc dosed Swiss-Webster mouse after 30 mins; format: functional; conditions: 0.5 h
# Mus musculus [2] = experiment: Analgesic activity in sc dosed Swiss-Webster mouse time of peak effect; format: functional
# Mus musculus [3] = experiment: Analgesic activity in sc dosed Swiss-Webster mouse after 6.5 hrs; format: functional, organism-based
# Mus musculus [4] = experiment: Analgesic activity in Swiss-Webster mouse assessed as time required for sustainance of activity at 70 mg/kg, sc; format: functional; conditions: route subcutaneous
smiles,measurement,setting,value
O=C(CBr)Nc1ccccc1CCN1CC[C@]23CCCC[C@H]2[C@H]1Cc1ccc(O)cc13,ED50,Mus musculus [1],16 mg/kg
same,Time,Mus musculus [2],30 min
same,Activity,Mus musculus [3],Active
same,Time,Mus musculus [4],6.5 h
